Assays:
[1] = test system: human Hs746t gastric cancer cell xenograft tumor model; experiment: In vivo pharmacodynamic study, Hs746t gastric cancer cell xenograft tumor model; set-up: species or system BALB/c nude mice; details: for Tumor volume (mm^3) (20th day): average value ± SEM, Hs746t xenograft in BALB/c nude mice; for T/C (%) / TGI (%): calculated based on the tumor volume on the 21st day after administration
Description: Human gastric cancer HS 746T cells were cultured in a single layer in vitro. The culturing condition was DMEM medium supplemented with 10% fetal bovine serum, 100 U/mL penicillin and […] in 37° C., 5% CO2 incubator. Digestion and passage treatment with trypsin-EDTA was carried out twice a week. When the cell saturation was 80%-90% and the number reached the required level, the cells were collected, counted and seeded.
BALB/c nude mice, male. 6-8 weeks old, weighting 18-22 g.
0.2 mL (2×10^6, cells:Matrigel=1:1) HS 746T cells were inoculated subcutaneously on the right back of each mouse. The drug was administered in groups when the average tumor volume reached approximately 100-150 mm^3.
Experimental index: The experimental index was whether the tumor growth was inhibited, delayed or cured. The diameters of the tumor were measured twice a week using a vernier caliper. The formula for calculating the tumor volume is V=0.5a×b^2, a and b represent the long and short diameters of the tumor respectively. The antitumor effect (TGI) of the compound was evaluated by T-C (days) and T/C (%).

[2] = test system: MKN45 gastric cancer cell line; experiment: Cell proliferation inhibition experiment (CellTiter-Glo); format: cell-based
Description: Reagents and Consumables:
The cell plates were incubated in a carbon dioxide incubator for 3 days.

[3] = Study on the hygroscopicity (DVS detection); format: physicochemical; details: 25° C./80% RH
Description: Dynamic Vapor Sorption (DVS) Instrument in the Present Disclosure
Instrument model: DVS Advantage-1 (SMS)
Detection condition: about 10-15 mg of the sample was used for DVS detection.
Equilibrium: dm/dt=0.01%/min: (time: 10 min, longest: 180 min)
RH (%) gradient for testing: 10%
RH (%) gradient range for testing: 0%-90%-0%
The hygroscopicity was evaluated using the judgment criterias in the following Table 6: […]

Row | SMILES | Tumor volume (mm^3) (20th day) [1] | T/C (%) [1] [%] | TGI (%) [1] [%] | inhibitory activity on MKN45 cell (in words) [2] | Classification of hygroscopicity [3] | Hygroscopic weight gain at 25/80% RH [3] [%] | tumor inhibitory effect (in words) ([1]; Hs746t gastric cancer cell xenograft tumor model)
1 | CCOc1ccn(-c2ccc(F)cc2)c(=O)c1C(=O)Nc1ccc(Oc2ccnc(N)c2Cl)c(F)c1 [BMS777607] | 1872 ± 355 | 27.61 | 73.58 |  |  |  | 
2 | CN(C)C(=O)Nc1cc(Oc2ccc(NC(=O)c3cn(CC4CC4)c(=O)n(-c4ccc(F)cc4)c3=O)cc2F)ccn1 |  |  |  | good inhibitory activity | slightly hygroscopic | 0.2801 | 
3 | CN(C)C(=O)Nc1cc(Oc2ccc(NC(=O)c3cn(CC4CC4)c(=O)n(-c4ccc(F)cc4)c3=O)cc2F)ccn1 [Compound represented by formula (I)] | 4 ± 2 | 104.82 | 0.15 |  |  |  | better tumor inhibitory effect than BMS777607 and LY2801653
4 | CN(C)C(=O)Nc1cc(Oc2ccc(NC(=O)c3cn(CC4CC4)c(=O)n(-c4ccc(F)cc4)c3=O)cc2F)ccn1.Cc1ccc(S(=O)(=O)O)cc1 |  |  |  |  | slightly hygroscopic | 0.999 | 
5 | Cc1ccc(C(=O)Nc2ccc(Oc3cc4cnn(C)c4cc3-c3cn[nH]c3)c(F)c2)c(=O)n1-c1ccc(F)cc1 [LY2801653] | 88 ± 13 | 101.62 | 3.45 |  |  |  | 

From patent US20220235029A1, “CRYSTAL FORM OF C-MET/AXL INHIBITOR” (MEDSHINE DISCOVERY INC., priority 2019, published 2022)
